Assay in all cases: DTP human tumour cell line panel, 48 h
Test [1] has as its system SK-MEL-2 melanoma.
Test [2] deals with NCI-H522 lung.
In test [3] the test system is UACC-257 melanoma.
Test [4] concerns SF-295 CNS.
For test [5], the system named is RPMI-8226 leukemia.
The subject of test [6] is OVCAR-8 ovarian.
Test [7] relates to SN12C renal.
Test [8] has as its system NCI-H23 lung.
Test [9] deals with M14 melanoma.
For test [10], the system named is SK-OV-3 ovarian.

“And” between values parts separate entries of the source, which are not always exact repeats. Equal values may be shown once.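 Five concentrations, 48 hours, 96-well plates. GI50 is the concentration that inhibits growth by half. At the TGI there is no net growth.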

For the molecule `CCC(=O)OCN1C(=O)C=CC1=O`, the TGI (usually the concentration giving total growth inhibition) was 29.3 µM in test [1]; 4.64 µM and 4.58 µM in test [2]; 29.4 µM and 22.2 µM in test [3]; 35.2 µM and > 66.6 µM in test [4]; 56.2 µM and 13.5 µM in test [5]; 35 µM and 37 µM in [6]. In addition, the TGI in test [7] was 30.5 µM and 35.6 µM; in test [8], 39.6 µM and 34.7 µM; in test [9], 37.5 µM and 32.3 µM; in test [10] it was above 100 µM. The GI50 (as a rule, the concentration that inhibits growth by half) in test [2] was 2.27 µM; in [3], 15.7 µM; in [4] it was 18.4 µM; in test [5] it was 19.3 µM and 4.42 µM; in [7], 16.2 µM; in test [8], 20.1 µM. Further, the GI50 in [10] was above 100 µM.
For `CCOC(=O)C1C(=O)c2cccc(OC)c2C2COC(=O)N12` (configuration not stated), the total growth inhibition concentration (TGI) in test [1], in test [2], in [3], in test [4], in test [5] and in test [6] was above 100 µM each time. Further, the TGI in [7], in test [8], in test [9] and in test [10] was above 100 µM each time.
Regarding `C#Cc1ccccc1N1C(=O)C=CC1=O`, the TGI in test [1], in test [2], in [3], in test [4], in [5] and in test [6] was above 100 µM in each case. The TGI in test [7], in test [8], in test [9] and in test [10] was above 100 µM in each case.
For `Nc1ncnc2c1ncn2C1OC(C(=O)OCCO)C(O)C1O` (configuration not stated), the total growth inhibition concentration (TGI) in [1], in test [2], in [3], in test [4], in test [5] and in test [6] was above 100 µM in each case. In addition, the TGI in [7], in test [8], in [9] and in [10] was above 100 µM throughout.
As for `Cn1c(=O)c2[nH]cnc2n(C)c1=O.[CH2-]C(Cc1cccc2cc(C(=O)O)c(=O)oc12)OC.[Hg+2].[OH-]` (configuration not stated), the GI50 is 17.4 µM in [1]; 15.1 µM in [2]; 17.9 µM in test [3]; 19.4 µM in [4]; 18.2 µM in [5]; 18 µM in [6]. The GI50 in test [7] is 18 µM; in test [8] it was 16.8 µM; in test [9], 16.9 µM; in test [10], above 44 µM. Also, the TGI was found to be 31.5 µM in test [1]; 32.5 µM in test [2]; 31.8 µM in [3]; 38 µM in test [4]; 65.1 µM in test [5]; 32 µM in test [6]. Moreover, the TGI in [7] was 32.5 µM; in test [8] it was 30.9 µM; in [9], 30.7 µM; in test [10], above 58.5 µM.
As to `COc1c(OC2OC(CO)C(O)C(O)C2O)cc2c(c1OC)-c1ccc(OC)c(=O)cc1[C@@H](NC(C)=O)CC2` (some centres not stated), the concentration for total growth inhibition (TGI) in test [1] was above 100 µM; in test [2], 99.3 µM; in test [3], above 100 µM; in test [4] it was above 100 µM; in test [5] it was above 100 µM; in test [6], above 100 µM. Besides, the TGI in test [7], in [8], in [9] and in test [10] was above 100 µM throughout.
Regarding `NCCNc1ncnc2ccc(Cl)cc12`, the TGI in test [1], in [2], in [3], in test [4], in test [5] and in test [6] was above 100 µM each time. In addition, the total growth inhibition concentration (TGI) in [7], in test [8], in test [9] and in [10] was above 100 µM each time.
On to `C=CC(=O)Nc1cccc(Nc2nc(Nc3ccc(N4CCN(C(C)=O)CC4)cc3OC)ncc2C(F)(F)F)c1`, for which the GI50 in [1] was 2.04 µM and 2.23 µM; in test [2] it was 0.484 µM and 0.506 µM; in test [3], 3.97 µM and 2.97 µM; in test [4], 6.82 µM and 8.18 µM; in [5], 4.17 µM and 3.43 µM; in test [6], 4.05 µM and 3.51 µM. The GI50 was 4.02 µM and 2.95 µM in test [7]; 5.27 µM and 5.47 µM in test [8]; 3.67 µM and 2.73 µM in test [9]; 0.211 µM and 0.291 µM in test [10]. Moreover, the total growth inhibition concentration (TGI) in test [1] is 6.83 µM and 10.8 µM; in test [2], 6.73 µM and 7.66 µM; in test [3] it was > 10 µM and 68.8 µM; in test [4], > 10 µM and 23.1 µM; in test [5], > 10 µM and 25.6 µM; in test [6], > 10 µM and 98.2 µM. The TGI in test [7] was > 10 µM and 54.8 µM; in [8] it was > 10 µM and 30 µM; in test [9] it was above 100 µM; in test [10] it was 2.8 µM and 5.29 µM.
Regarding `COC(=O)[C@]1(C)CC[C@]2(C)CC[C@]3(C)C(=CC(=O)[C@@H]4[C@@]5(C)CCC(=O)NC(C)(C)[C@@H]5CC[C@]43C)[C@@H]2C1`, the GI50 in test [1] is 21.6 µM; in test [2], 18.2 µM; in [3], 24.4 µM; in [4], 19.4 µM; in test [5], 12 µM; in [6] it was 29.2 µM. For the same molecule, the GI50 in [7] is 17.1 µM; in [8], 31 µM; in [9], 19.3 µM; in test [10] it was 24 µM. Besides, the TGI in [1] is 95.3 µM; in test [2], 69.3 µM; in [3], 94.3 µM; in test [4], 43.8 µM; in [5] it was 34.7 µM; in test [6], above 100 µM. Besides, the TGI was 35.2 µM in [7], above 100 µM in test [8], 44.4 µM in [9] and above 100 µM in test [10].
On to `O=C1OC(=O)C2C1C1C(c3ccccc3)=C(c3ccccc3)C2(O)C2C(=O)OC(=O)C12` (configuration not stated), for which the TGI in test [1], in test [2], in test [3], in test [4], in test [5] and in test [6] was above 100 µM throughout. Besides, the total growth inhibition concentration (TGI) in test [7], in test [8], in test [9] and in test [10] was above 100 µM in each case.

(Values after PubChem BioAssay (NCI).)
